For this assay, the system named is BDF1 mice, P388/VCR leukemia ip, median survival T/C. Put plainly: NCI In Vivo Anticancer Drug Screen. Data for tumor model P388 Leukemia resistant to Vincristine; NSC 67574 (intraperitoneal) in B6D2F1 (BDF1) mice. The conditions noted are these: endpoint: median survival time, higher = longer survival. On the procedure: The antitumor activity of compounds was measured in mice bearing transplantable tumors. Survival or tumor size were measured and the results are expressed as the measurement made in the treated group (T) divided by the measurement made in the vehicle treated control group (C). The tumor model used in this assay is P388 Leukemia resistant to Vincristine; NSC 67574 (intraperitoneal) in B6D2F1 (BDF1) mice

Setting [1] is: dose: 1.25 mg/kg/injection, schedule: Q01DX010 (ip), vehicle: saline.
[2] abbreviates: dose: 2.5 mg/kg/injection, schedule: Q01DX010 (ip), vehicle: saline.
Setting [3] is: dose: 5.0 mg/kg/injection, schedule: Q01DX010 (ip), vehicle: saline.
The mark [4] stands for this setting: dose: 10.0 mg/kg/injection, schedule: Q01DX010 (ip), vehicle: saline.
Where [5] appears, read: dose: 45.0 mg/kg/injection, schedule: Q01DX010 (ip), vehicle: saline.
The mark [6] stands for this setting: dose: 20.0 mg/kg/injection, schedule: Q01DX010 (ip), vehicle: saline.

For 18 compounds, T/C results are on record in PubChem BioAssay AID336 (DTP/NCI, 2004).

Each structure is given as a SMILES string. Values joined by “and” are separate entries in the source; they are usually repeats but may differ in a detail not shown here. Identical values can stand only once. Inconclusive results and toxic doses are left out.

`COc1cccc2c1C(=O)c1c(O)c3c(c(O)c1C2=O)C[C@@](O)(C(=O)CO)C[C@@H]3OC1CC(N)C(O)C(C)O1` (stereo not given in full): the T/C by setting is: (dose: 1.44 mg/kg/injection, schedule: Q04DX003 (ip), vehicle: saline) 172 % of control; (dose: 1.44 mg/kg/injection, schedule: Q04DX003 (ip), vehicle: water) 168 % of control; (dose: 2.4 mg/kg/injection, schedule: Q04DX003 (ip), vehicle: saline) 188 % of control; (dose: 2.4 mg/kg/injection, schedule: Q04DX003 (ip), vehicle: water) 159 % of control and 200 % of control; (dose: 4.0 mg/kg/injection, schedule: Q04DX003 (ip), vehicle: saline) 169 % of control; (dose: 4.0 mg/kg/injection, schedule: Q04DX003 (ip), vehicle: water) 155 % of control and 168 % of control. Also, the T/C by setting is: (dose: 6.67 mg/kg/injection, schedule: Q04DX003 (ip), vehicle: saline) 182 % of control; (dose: 6.67 mg/kg/injection, schedule: Q04DX003 (ip), vehicle: water) 100 % of control.
Regarding `CC1CN1P(=S)(N1CC1C)N1CC1C` (stereo not given), the T/C by setting is: under setting [1], 93 % of control; under setting [2], 96 % of control and 100 % of control; under setting [3], 100 % of control; under setting [4], 93 % of control and 107 % of control.
In the case of `Nc1ncnc2[nH]ncc12`, the T/C was 88 % of control (dose: 1.5 mg/kg/injection, schedule: Q01DX010 (ip), vehicle: saline); 88 % of control (dose: 3.0 mg/kg/injection, schedule: Q01DX010 (ip), vehicle: saline); 88 % of control and 103 % of control (dose: 6.0 mg/kg/injection, schedule: Q01DX010 (ip), vehicle: saline); 119 % of control (dose: 12.0 mg/kg/injection, schedule: Q01DX010 (ip), vehicle: saline).
Regarding `O=C(Nc1ccc(C2=NCCN2)cc1)c1ccc(C(=O)Nc2ccc(C3=NCCN3)cc2)c(F)c1`, the T/C (dose: 22.5 mg/kg/injection, schedule: Q01DX010 (ip), vehicle: saline) was 100 % of control; the T/C under setting [5] is 107 % of control; the T/C (dose: 90.0 mg/kg/injection, schedule: Q01DX010 (ip), vehicle: saline) was 123 % of control.
On to `CC(=O)c1cccc(NC2C(N)C(NC(=O)N(C)C)(C(C)O)C(C)(O)C2(O)COC(=O)c2c(C)cccc2O)c1` (stereo not given), for which the T/C is 98 % of control (dose: 5.4 mg/kg/injection, schedule: Q04DX003 (ip), vehicle: alkali diluted with saline); 98 % of control (dose: 9.0 mg/kg/injection, schedule: Q04DX003 (ip), vehicle: alkali diluted with saline); 100 % of control (dose: 15.0 mg/kg/injection, schedule: Q04DX003 (ip), vehicle: alkali diluted with saline).
As for `NC(Cc1ccc(N(CCCl)CCCl)cc1)C(=O)O` (stereo not given), the T/C was 170 % of control under setting [1]; 190 % of control and 191 % of control under setting [2]; 300 % of control under setting [3]; 86 % of control and 91 % of control under setting [4].
In the case of `O=C1CCC(N2C(=O)c3ccccc3C2=O)C(=O)N1` (stereo not given), the T/C reads like this: (dose: 62.5 mg/kg/injection, schedule: Q01DX010 (ip), vehicle: saline) 95 % of control; (dose: 125.0 mg/kg/injection, schedule: Q01DX010 (ip), vehicle: saline) 91 % of control.
`N=[N+]=CC(=O)OCC(N)C(=O)O` (stereo not given): the T/C was 152 % of control (dose: 3.13 mg/kg/injection, schedule: Q01DX010 (ip), vehicle: saline) and 165 % of control (dose: 6.25 mg/kg/injection, schedule: Q01DX010 (ip), vehicle: saline).
Turning to `COC1C(O)C(C)OC(OC2C(Oc3cccc4c(O)c5c(=O)oc6ccc(C)c7c(=O)oc(c34)c5c67)OC(C)C(O)C2O)C1O` (stereo not given), the T/C is 121 % of control (dose: 43.2 mg/kg/injection, schedule: Q04DX003 (ip), vehicle: acid diluted with saline); 114 % of control (dose: 72.0 mg/kg/injection, schedule: Q04DX003 (ip), vehicle: acid diluted with saline); 123 % of control (dose: 200.0 mg/kg/injection, schedule: Q04DX003 (ip), vehicle: acid diluted with saline).
`CNc1nc(Nc2ccc(C3=NCCN3)cc2)nc(Nc2ccc(C3=NCCN3)cc2)n1`: the T/C reads like this: under setting [6], 116 % of control; (dose: 30.0 mg/kg/injection, schedule: Q01DX010 (ip), vehicle: saline) 108 % of control; under setting [5], 91 % of control.
As to `C1CN1c1nc(N2CC2)nc(N2CC2)n1`, the T/C (dose: 0.13 mg/kg/injection, schedule: Q01DX010 (ip), vehicle: saline) was 88 % of control and 108 % of control; the T/C (dose: 0.5 mg/kg/injection, schedule: Q01DX010 (ip), vehicle: saline) is 152 % of control and 228 % of control.
`CC/C(=C(/CC)c1ccc(O)cc1)c1ccc(O)cc1`: the T/C by setting is: (dose: 12.5 mg/kg/injection, schedule: Q01DX010 (sc), vehicle: steriod suspending solution) 88 % of control and 111 % of control; (dose: 25.0 mg/kg/injection, schedule: Q01DX010 (sc), vehicle: steriod suspending solution) 103 % of control; (dose: 50.0 mg/kg/injection, schedule: Q01DX010 (sc), vehicle: steriod suspending solution) 100 % of control; (dose: 100.0 mg/kg/injection, schedule: Q01DX010 (sc), vehicle: steriod suspending solution) 103 % of control.
For the compound `O=c1[nH]cc(F)c(=O)[nH]1`, the T/C by setting is: under setting [2], 155 % of control; under setting [4], 200 % of control; under setting [6], 116 % of control and 235 % of control; (dose: 21.6 mg/kg/injection, schedule: Q04DX003 (ip), vehicle: saline) 154 % of control; (dose: 36.0 mg/kg/injection, schedule: Q04DX003 (ip), vehicle: saline) 188 % of control; (dose: 60.0 mg/kg/injection, schedule: Q04DX003 (ip), vehicle: saline) 252 % of control. Also, for the setting “dose: 100.0 mg/kg/injection, schedule: Q04DX003 (ip), vehicle: saline”, the T/C was 270 % of control.
With `COC(=O)Nc1nc2ccc(C(=O)c3cccs3)cc2[nH]1`, the T/C runs as follows: (dose: 21.6 mg/kg/injection, schedule: Q04DX003 (ip), vehicle: other) 151 % of control; (dose: 36.0 mg/kg/injection, schedule: Q04DX003 (ip), vehicle: other) 242 % of control; (dose: 60.0 mg/kg/injection, schedule: Q04DX003 (ip), vehicle: other) 189 % of control.
As to `Cc1c2ccncc2c(C)c2c1[nH]c1ccccc12`, the T/C by setting is: (dose: 13.0 mg/kg/injection, schedule: Q04DX003 (ip), vehicle: water) 150 % of control; (dose: 21.6 mg/kg/injection, schedule: Q04DX003 (ip), vehicle: water) 210 % of control; (dose: 24.0 mg/kg/injection, schedule: Q04DX003 (ip), vehicle: clinical formulation) 158 % of control; (dose: 36.0 mg/kg/injection, schedule: Q04DX003 (ip), vehicle: water) 253 % of control; (dose: 40.0 mg/kg/injection, schedule: Q04DX003 (ip), vehicle: clinical formulation) 203 % of control; (dose: 60.0 mg/kg/injection, schedule: Q04DX003 (ip), vehicle: water) 93 % of control. For the same compound, the T/C (dose: 66.7 mg/kg/injection, schedule: Q04DX003 (ip), vehicle: clinical formulation) was 98 % of control.
Regarding `Cc1cc(N(CCCl)CCCl)ccc1N=Nc1ccccc1C(=O)O`, under setting [3], the T/C was 91 % of control and 112 % of control.
With `COc1cc2cc3c4cc(OC)c(OC)cc4cc[n+]3c(C)c2cc1OC` (tested in a mixture with another compound), the T/C reads like this: (dose: 46.7 mg/kg/injection, schedule: Q04DX003 (ip), vehicle: alkali diluted with saline) 106 % of control; (dose: 77.8 mg/kg/injection, schedule: Q04DX003 (ip), vehicle: alkali diluted with saline) 110 % of control; (dose: 130.0 mg/kg/injection, schedule: Q04DX003 (ip), vehicle: alkali diluted with saline) 115 % of control; (dose: 216.0 mg/kg/injection, schedule: Q04DX003 (ip), vehicle: alkali diluted with saline) 124 % of control.
In the case of `CCOC(N)=O`, the T/C (dose: 500.0 mg/kg/injection, schedule: Q01DX010 (ip), vehicle: saline) is 107 % of control and 119 % of control.
